Data published in BindingDB's records for patent US12391671 (Dana-Farber Cancer Institute, 2025).

Columns and labels:
Test in all cases: HTRF-Based EGFR Biochemical Assay
[1] = target: Epidermal growth factor receptor [L858R] (Homo sapiens, UniProt P00533, L858R)
Protocol: (§1) EGFR biochemical activity measurements were carried out using the homogeneous time-resolved fluorescence (HTRF) assay (Cisbio), inhibitors and DMSO normalizations were first dispensed to empty black low-volume 384-well plates (Corning) with 0300 digital liquid dispenser (HP). All reactions were carried out at room temperature and solutions were added to plates with a Multidrop Combi Reagent Dispenser (ThermoFisher). The reaction mixture (10 μL final volume) contained 1 μM tyrosine kinase peptide-biotin substrate and mutant EGFR in a reaction buffer (50 mM HEPES pH 7.0, 5 mM MgCl2, 1 mM MnCl2, 0.01% BSA, 2 mM TCEP, 0.1 mM NaVO4). Enzyme concentrations were adjusted to accommodate varying kinase activities (L858R 0.1 nM, L858R/T790M 0.02 nM). Enzyme reaction solution (2× concentrations, 5 μL) was added to 384-well plates containing compounds and incubated for 30 mins. Enzyme reactions were initiated with the addition of 5 μL of ATP to a final concentration of 100 μM and reacted for 20 mins. Reactions were quenched with the addition of 10 μL of phospho-tyrosine antibody-Europium(III) cryptate (1-to-180 volume ratio) and Streptavidin-XL665 (46.7 nM) in EDTA-containing detection buffer, then incubated at room temperature for 1 hour, and read with a PHERAstar plate reader (excitation=337 nm, emission=620 nm and 665 nm).

[2] = target: Epidermal growth factor receptor [T790M,L858R] (Homo sapiens, UniProt P00533, L858R/T790M)
Protocol: as §1

[3] = target: Epidermal growth factor receptor [T790M,L858R] (Homo sapiens, UniProt P00533, T790M/L858R)
Protocol: as §1

Epidermal growth factor receptor [L858R], sequence (P00533 25-1210 L858R limits assumed): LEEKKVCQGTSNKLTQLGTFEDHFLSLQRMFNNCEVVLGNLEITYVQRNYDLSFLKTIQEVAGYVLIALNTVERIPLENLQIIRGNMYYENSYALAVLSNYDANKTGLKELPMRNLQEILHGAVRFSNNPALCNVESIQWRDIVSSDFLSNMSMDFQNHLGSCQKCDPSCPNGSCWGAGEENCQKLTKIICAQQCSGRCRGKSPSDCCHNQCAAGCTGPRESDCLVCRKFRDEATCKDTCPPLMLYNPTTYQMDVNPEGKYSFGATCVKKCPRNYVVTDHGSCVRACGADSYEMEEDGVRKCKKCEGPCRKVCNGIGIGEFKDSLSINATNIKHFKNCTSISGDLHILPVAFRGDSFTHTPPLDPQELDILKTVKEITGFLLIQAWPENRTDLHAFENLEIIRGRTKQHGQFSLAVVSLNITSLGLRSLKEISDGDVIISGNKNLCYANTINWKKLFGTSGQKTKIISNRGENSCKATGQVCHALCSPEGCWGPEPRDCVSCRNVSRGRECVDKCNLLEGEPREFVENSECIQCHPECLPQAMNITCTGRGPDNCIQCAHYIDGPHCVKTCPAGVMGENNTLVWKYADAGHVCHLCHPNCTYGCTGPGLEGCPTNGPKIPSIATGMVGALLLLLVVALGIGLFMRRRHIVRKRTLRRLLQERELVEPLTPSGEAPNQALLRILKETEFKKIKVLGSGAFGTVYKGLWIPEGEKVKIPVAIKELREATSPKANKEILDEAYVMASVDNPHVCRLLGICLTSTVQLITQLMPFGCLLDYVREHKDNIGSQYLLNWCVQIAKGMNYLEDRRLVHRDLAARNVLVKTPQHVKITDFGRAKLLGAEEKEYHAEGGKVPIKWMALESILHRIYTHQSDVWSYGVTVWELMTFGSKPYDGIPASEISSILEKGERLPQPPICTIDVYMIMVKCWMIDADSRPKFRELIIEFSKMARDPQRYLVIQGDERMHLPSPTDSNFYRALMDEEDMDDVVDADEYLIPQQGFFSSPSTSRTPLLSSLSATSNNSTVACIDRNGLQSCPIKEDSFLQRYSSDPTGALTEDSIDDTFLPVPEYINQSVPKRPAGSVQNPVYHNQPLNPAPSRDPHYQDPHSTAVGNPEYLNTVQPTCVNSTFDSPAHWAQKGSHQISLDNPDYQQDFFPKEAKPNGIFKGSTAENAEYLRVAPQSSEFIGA
Epidermal growth factor receptor [T790M,L858R] (Homo sapiens, UniProt P00533, L858R/T790M), sequence (P00533 25-1210 T790M/L858R limits assumed): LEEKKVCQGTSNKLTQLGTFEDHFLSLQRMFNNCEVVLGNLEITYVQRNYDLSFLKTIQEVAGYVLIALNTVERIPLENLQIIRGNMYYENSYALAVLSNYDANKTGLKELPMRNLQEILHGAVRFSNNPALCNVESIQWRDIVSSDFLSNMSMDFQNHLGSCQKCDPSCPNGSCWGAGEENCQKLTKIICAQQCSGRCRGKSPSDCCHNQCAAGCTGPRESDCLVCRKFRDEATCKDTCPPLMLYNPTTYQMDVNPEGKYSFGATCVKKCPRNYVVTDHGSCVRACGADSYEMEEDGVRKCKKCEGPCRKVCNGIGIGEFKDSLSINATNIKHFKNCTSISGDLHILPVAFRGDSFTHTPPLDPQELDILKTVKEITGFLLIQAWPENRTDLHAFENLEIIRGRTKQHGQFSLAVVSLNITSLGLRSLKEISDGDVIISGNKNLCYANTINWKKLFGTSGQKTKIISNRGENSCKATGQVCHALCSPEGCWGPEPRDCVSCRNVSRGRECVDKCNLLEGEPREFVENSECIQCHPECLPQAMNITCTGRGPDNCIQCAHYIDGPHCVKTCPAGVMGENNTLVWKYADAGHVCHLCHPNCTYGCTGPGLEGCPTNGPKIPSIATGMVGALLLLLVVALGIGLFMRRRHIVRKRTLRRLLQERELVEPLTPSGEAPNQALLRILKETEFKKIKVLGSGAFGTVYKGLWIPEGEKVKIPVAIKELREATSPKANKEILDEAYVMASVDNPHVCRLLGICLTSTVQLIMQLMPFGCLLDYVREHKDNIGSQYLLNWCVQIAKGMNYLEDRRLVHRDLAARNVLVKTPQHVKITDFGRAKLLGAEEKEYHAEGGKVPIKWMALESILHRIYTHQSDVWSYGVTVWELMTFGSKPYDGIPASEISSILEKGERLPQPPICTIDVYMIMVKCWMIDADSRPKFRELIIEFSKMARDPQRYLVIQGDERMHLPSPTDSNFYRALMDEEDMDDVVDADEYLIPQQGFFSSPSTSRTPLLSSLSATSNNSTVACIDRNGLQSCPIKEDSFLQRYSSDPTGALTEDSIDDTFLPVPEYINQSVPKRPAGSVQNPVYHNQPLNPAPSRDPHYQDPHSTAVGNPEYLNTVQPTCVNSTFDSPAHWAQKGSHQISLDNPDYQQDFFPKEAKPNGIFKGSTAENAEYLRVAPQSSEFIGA
Epidermal growth factor receptor [T790M,L858R] (Homo sapiens, UniProt P00533, T790M/L858R), sequence (P00533 25-1210 T790M/L858R limits assumed): as above

## O=C1c2cc(-c3ccc(N4CCNCC4)cc3)ccc2CN1C(c1nc2ccccc2[nH]1)c1cc(F)ccc1O (stereo not drawn) [US12391671, Compound 021]
[1]
  IC50: 6 nM
[2]
  IC50: 2 nM

## CN1CCC(c2ccc(-c3ccc4c(c3F)C(=O)N(C(c3nc5ccccc5[nH]3)c3cc(F)ccc3O)C4)cc2)CC1 (stereo not drawn) [US12391671, Compound 032]
[1]
  IC50: 2 nM
[2]
  IC50: 0.3 nM

## CN1CCC(c2ccc(-c3ccc4c(c3)C(=O)N(C(c3nc5ccccc5[nH]3)c3cccc(Cl)c3O)C4)cc2)CC1 (stereo not drawn) [US12391671, Compound 043]
[1]
  IC50: 49 nM
[2]
  IC50: 73 nM

## CC1=CNC([C@H](c2cc(F)ccc2O)N2CC3=CC=C(c4ccc(C5CCN(C)CC5)cc4)C(F)C3C2=O)N1 (stereo partly drawn) [US12391671, Compound 094]
[1]
  IC50: 1 nM
[3]
  IC50: 2 nM
